Values of other authors as cited in patent US7485688B2, “Water and oil producing composition” (priority 2004, dated 2009).

Tested on: rats or mice
Conditions: acute oral toxicity in rats or mice

| SMILES | LD50 [mg/kg] |
| --- | --- |
| CC(=O)OC(C)(N=NC(C)(OC(C)=O)c1ccccc1)c1ccccc1 (centres unmarked) [1,1-azobis(1-acetoxy-1-phenylethane)] | ≥ 5000 |
| N#CC1(N=NC2(C#N)CCCCC2)CCCCC1 [1,1′-azobis(2-cyclohexane-1-carbonitrile)] | 11800 |
| CC(C)CC(C)(C#N)N=NC(C)(C#N)CC(C)C (centres unmarked) [2,2′-azobis(2,4-dimethylvaleronitrile)] | 6000 |
| CCC(C)(C#N)N=NC(C)(C#N)CC (centres unmarked) [2,2′-azobis-2-methylbutyronitrile] | 1316 |
| COC(=O)C(C)(C)N=NC(C)(C)C(=O)OC [dimethyl 2,2′-azobisisobutyrate] | 2369 |
